These results are taken from ChEMBL document CHEMBL4177722, “Small molecule inhibitors of anthrax edema factor” (Bioorg Med Chem Lett, 2018).

pKi: −log10 of the molar value.

A short description of data set [1]: (§1) Cytotoxicity against mouse RAW264.7 cells assessed a reduction in cell viability incubated for 24 hrs in presence of 10% FBS by MTT assay. The data set is classed as cell-based. The note with it: RAW264.7 cells. Background: Tetrazolium dyes change colour on reduction, which living cells bring about.
The target of data set [2] is T1, Calmodulin-sensitive adenylate cyclase (Bacillus anthracis) (UniProt P40136).
T1 sequence (whole entry): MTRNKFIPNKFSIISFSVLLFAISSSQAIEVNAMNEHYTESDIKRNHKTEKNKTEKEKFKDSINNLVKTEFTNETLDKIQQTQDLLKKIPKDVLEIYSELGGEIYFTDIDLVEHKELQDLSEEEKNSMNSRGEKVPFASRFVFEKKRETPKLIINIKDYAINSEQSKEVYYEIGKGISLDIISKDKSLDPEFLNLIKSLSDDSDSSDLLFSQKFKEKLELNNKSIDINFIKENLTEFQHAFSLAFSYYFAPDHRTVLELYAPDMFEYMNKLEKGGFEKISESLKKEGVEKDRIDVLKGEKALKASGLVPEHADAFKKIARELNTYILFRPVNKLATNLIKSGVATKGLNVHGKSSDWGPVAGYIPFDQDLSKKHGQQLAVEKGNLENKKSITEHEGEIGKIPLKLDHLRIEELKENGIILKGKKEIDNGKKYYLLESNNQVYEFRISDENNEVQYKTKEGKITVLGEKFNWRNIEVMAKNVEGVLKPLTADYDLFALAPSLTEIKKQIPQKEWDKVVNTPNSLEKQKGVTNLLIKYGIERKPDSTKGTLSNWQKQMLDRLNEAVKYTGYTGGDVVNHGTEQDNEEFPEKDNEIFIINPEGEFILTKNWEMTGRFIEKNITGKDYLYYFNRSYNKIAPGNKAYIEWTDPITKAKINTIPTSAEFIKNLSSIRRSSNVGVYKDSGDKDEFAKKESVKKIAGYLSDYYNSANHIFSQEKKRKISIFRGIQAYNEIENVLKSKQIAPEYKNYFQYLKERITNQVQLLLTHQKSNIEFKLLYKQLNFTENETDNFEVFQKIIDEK
The experiment in a line: Irreversible inactivation of Bacillus anthracis edema factor pre-incubated for 90 mins followed by drug filtration by EnzChek pyrophosphate assay.

For data set [3], the target named is T2, Calmodulin-sensitive adenylate cyclase (Bacillus anthracis, UniProt P40136).
T2 sequence (P40136 whole entry): T1 sequence (whole entry)
The experiment in a line: Inactivation of Bacillus anthracis edema factor in presence of CaM incubated for 10 to 240 mins by EnzChek pyrophosphate assay.

The target of data set [4] is T1, Calmodulin-sensitive adenylate cyclase (Bacillus anthracis). Briefly: Inactivation of Bacillus anthracis edema factor assessed as inactivation rate constant in presence of CaM incubated for 10 to 240 mins by EnzChek pyrophosphate assay.
Data set [5] shares this target. Briefly: Inactivation of Bacillus anthracis edema factor assessed as Kinact/Ki ratio in presence of CaM incubated for 10 to 240 mins by EnzChek pyrophosphate assay.
For data set [6], the system named is RAW264.7. Briefly: Cytotoxicity against mouse RAW264.7 cells assessed a reduction in cell viability incubated for 24 hrs in absence of 10% FBS by MTT assay. The data set is classed as cell-based. The settings on record: raw264.7, 24 h.
Data set [7] deals with RAC-alpha serine/threonine-protein kinase (Homo sapiens) (UniProt P31749). The experiment in a line: Inhibition of human AKT1 at 10 uM by ADP-Glo kinase assay. In general terms: ADP-Glo turns the ADP formed in a reaction into a luminescent signal.
Sequence of RAC-alpha serine/threonine-protein kinase (Homo sapiens) (P31749 whole entry): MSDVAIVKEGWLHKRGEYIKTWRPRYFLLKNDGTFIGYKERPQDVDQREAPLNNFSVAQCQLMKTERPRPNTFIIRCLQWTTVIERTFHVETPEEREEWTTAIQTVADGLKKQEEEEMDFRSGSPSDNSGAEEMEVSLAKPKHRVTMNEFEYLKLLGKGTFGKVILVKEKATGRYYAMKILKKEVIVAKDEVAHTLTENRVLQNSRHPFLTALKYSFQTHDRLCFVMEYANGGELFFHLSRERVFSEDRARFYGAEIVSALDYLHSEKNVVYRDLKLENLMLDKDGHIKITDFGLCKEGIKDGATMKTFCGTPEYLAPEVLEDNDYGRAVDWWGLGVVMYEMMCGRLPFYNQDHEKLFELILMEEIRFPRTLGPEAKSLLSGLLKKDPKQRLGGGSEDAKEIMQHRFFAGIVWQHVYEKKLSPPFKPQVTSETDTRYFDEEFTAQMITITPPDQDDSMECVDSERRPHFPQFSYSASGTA
The target of data set [8] is Casein kinase II subunit alpha (Homo sapiens) (UniProt P68400). Briefly: Inhibition of human CK2a1 at 10 uM by ADP-Glo kinase assay.
Sequence of Casein kinase II subunit alpha (Homo sapiens) (P68400 whole entry, looked up): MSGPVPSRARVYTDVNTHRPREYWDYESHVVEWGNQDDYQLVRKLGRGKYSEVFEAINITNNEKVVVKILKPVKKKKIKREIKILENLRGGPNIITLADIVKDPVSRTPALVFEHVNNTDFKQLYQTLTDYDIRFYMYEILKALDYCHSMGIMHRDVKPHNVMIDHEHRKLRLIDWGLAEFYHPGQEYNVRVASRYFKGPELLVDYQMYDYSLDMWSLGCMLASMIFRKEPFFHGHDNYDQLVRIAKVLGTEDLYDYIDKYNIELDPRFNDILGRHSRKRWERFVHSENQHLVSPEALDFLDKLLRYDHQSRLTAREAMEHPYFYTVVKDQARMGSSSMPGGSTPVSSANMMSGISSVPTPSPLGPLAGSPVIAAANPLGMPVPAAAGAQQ
Data set [9] has as its target T3, Inhibitor of nuclear factor kappa-B kinase subunit beta (Homo sapiens) (UniProt O14920).
T3 sequence (whole entry): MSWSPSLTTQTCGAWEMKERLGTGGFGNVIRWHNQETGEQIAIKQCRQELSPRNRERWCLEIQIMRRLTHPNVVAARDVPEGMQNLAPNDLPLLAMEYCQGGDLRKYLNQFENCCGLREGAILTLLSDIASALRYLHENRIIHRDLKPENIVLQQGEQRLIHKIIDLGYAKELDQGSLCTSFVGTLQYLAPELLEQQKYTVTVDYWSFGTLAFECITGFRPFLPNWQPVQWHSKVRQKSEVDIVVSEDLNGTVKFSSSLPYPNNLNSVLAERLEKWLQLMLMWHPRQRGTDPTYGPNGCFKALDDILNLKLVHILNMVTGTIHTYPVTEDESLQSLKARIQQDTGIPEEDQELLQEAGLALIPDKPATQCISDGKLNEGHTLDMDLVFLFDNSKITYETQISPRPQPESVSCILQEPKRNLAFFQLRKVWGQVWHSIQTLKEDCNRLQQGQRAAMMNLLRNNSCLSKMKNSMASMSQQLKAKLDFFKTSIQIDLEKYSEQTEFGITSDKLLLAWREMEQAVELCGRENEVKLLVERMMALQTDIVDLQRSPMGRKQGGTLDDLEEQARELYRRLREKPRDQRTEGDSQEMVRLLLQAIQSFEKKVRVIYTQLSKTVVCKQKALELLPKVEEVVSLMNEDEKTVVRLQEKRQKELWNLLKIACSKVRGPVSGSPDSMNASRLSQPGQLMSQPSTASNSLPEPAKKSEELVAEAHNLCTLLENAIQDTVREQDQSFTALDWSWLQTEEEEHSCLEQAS
Briefly: Inhibition of human IKKbeta at 10 uM by ADP-Glo kinase assay.

Data set [10] concerns the target Casein kinase I isoform alpha (Homo sapiens) (UniProt P48729). The experiment in a line: Inhibition of human CK1a1 at 10 uM by ADP-Glo kinase assay.
The target in data set [11] is Mitogen-activated protein kinase 14 (Homo sapiens) (UniProt Q16539). Briefly: Inhibition of human p38alpha at 10 uM by ADP-Glo kinase assay.
Sequence of Mitogen-activated protein kinase 14 (Homo sapiens) (Q16539 whole entry, canonical isoform): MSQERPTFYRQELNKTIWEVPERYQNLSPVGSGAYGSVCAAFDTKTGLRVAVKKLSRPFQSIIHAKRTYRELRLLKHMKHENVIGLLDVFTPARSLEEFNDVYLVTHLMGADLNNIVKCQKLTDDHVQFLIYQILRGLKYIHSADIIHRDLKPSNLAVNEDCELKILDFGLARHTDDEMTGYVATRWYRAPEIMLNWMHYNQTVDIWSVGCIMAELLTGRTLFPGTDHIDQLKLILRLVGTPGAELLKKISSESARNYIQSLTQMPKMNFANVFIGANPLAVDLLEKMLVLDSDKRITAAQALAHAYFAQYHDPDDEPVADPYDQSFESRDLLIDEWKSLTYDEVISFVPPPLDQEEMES
For data set [12], the target named is Casein kinase I isoform gamma-1 (Homo sapiens) (UniProt Q9HCP0). The experiment in a line: Inhibition of human CK1g1 at 10 uM by ADP-Glo kinase assay.
Sequence of Casein kinase I isoform gamma-1 (Homo sapiens) (Q9HCP0 whole entry, looked up, canonical isoform): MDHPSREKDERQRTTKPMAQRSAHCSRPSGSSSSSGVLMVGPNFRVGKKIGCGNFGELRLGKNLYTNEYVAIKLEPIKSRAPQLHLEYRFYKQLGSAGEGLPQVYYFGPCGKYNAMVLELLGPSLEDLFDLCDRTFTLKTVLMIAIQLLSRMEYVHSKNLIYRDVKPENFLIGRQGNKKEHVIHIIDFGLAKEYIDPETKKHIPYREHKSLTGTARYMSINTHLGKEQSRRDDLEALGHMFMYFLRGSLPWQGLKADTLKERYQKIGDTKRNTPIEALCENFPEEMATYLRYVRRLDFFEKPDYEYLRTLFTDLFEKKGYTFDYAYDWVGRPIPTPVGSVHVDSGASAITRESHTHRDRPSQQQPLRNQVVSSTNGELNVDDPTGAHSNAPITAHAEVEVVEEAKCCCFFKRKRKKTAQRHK
The target of data set [13] is Misshapen-like kinase 1 (Homo sapiens) (UniProt Q8N4C8). The experiment in a line: Inhibition of human MINK at 10 uM by ADP-Glo kinase assay.
Sequence of Misshapen-like kinase 1 (Homo sapiens) (Q8N4C8 whole entry, looked up): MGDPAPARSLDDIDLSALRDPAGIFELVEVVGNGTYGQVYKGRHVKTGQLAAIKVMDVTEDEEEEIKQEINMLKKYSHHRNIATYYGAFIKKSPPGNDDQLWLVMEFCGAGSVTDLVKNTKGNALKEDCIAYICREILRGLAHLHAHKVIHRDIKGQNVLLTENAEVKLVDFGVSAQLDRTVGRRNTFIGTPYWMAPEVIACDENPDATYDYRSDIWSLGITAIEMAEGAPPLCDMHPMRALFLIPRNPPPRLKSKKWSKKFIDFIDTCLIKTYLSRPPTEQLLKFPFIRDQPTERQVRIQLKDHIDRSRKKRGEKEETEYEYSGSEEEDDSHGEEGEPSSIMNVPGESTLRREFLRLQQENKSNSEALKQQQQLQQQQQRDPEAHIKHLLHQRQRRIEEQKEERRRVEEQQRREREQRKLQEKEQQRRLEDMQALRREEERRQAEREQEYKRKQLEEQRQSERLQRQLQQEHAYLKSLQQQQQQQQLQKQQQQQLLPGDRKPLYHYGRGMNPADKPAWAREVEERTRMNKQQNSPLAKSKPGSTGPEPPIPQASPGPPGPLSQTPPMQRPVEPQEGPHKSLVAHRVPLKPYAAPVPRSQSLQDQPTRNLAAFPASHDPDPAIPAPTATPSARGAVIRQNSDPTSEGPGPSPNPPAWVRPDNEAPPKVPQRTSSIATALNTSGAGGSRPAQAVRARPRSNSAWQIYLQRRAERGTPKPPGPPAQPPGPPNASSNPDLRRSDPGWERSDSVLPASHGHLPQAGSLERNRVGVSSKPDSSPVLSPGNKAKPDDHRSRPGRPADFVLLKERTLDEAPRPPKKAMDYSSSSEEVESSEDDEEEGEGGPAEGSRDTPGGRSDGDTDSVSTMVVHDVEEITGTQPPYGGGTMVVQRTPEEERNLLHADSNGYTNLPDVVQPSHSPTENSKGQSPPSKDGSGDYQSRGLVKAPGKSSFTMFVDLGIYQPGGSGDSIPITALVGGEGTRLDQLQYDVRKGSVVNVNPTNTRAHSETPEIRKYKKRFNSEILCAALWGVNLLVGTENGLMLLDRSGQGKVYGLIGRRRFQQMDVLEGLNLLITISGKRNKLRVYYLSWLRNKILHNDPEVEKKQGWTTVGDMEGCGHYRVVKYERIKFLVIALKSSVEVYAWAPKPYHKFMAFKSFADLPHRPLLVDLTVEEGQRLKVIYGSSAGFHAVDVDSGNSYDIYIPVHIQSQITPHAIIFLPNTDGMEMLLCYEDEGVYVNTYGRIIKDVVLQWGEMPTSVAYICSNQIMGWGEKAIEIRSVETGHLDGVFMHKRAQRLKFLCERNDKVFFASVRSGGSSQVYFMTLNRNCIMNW
In data set [14] the test system is RAW264.7. The description is as §1. The note with it: raw264.7, 24 h. The data set is classed as cell-based.
Data set [15] deals with T1, Calmodulin-sensitive adenylate cyclase (Bacillus anthracis). The experiment in a line: Inactivation of Bacillus anthracis edema factor assessed as Kinact/Ki ratio in presence of CaM incubated for 10 to 240 mins by EnzChek pyrophosphate assay relative to FSBA.

Sequence of Casein kinase I isoform alpha (Homo sapiens) (P48729 2-337 limits assumed): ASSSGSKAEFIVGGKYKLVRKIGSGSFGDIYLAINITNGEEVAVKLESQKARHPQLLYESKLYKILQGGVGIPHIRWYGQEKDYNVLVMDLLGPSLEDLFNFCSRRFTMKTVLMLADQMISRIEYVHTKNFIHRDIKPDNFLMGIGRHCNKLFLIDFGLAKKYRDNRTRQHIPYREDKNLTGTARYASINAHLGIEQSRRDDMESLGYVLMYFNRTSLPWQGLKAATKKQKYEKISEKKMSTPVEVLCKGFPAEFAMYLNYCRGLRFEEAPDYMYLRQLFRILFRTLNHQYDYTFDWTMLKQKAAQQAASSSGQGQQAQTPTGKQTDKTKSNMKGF

Turning to `Nc1ncnc2c1ncn2[C@@H]1O[C@H](COC(=O)c2ccc(S(=O)(=O)F)cc2)[C@@H](O)[C@H]1O`, the CC50 (in general, the concentration that lowers cell viability or growth by half) at 24 h in data set [1] is over 100 µM. For the same molecule, the inhibition (in general, how much of the control response was suppressed) in data set [2] is “Dose-dependent effect”. For the same molecule, in data set [3], the pKi (in general, the Ki on a negative log10 scale, so that one unit is a factor of ten) is 4.74. For the same molecule, the Kinact in data set [4] came out at 0.015 min⁻¹. Also, the Ratio in data set [5] worked out at 13.4. In addition, in the data set with RAW264.7 [6], the Activity result was “Non-Toxic”.

Take `CN[C@@H]1C[C@H]2O[C@@](C)([C@@H]1OC)n1c3ccccc3c3c4c(c5c6ccccc6n2c5c31)C(=O)NC4`: the inhibition came out at 61% in data set [7]; 64% in data set [8]; 64% in data set [9]; 51% in data set [10]; 11% in data set [11]; 38% in data set [12]. Besides, the inhibition in data set [13] worked out at 98%.

With `Nc1cc(OCc2ccc(S(=O)(=O)F)cc2)ccn1`, the half-maximal cytotoxic concentration (CC50) in the data set with RAW264.7 [14] came out at 86 µM. For the same molecule, the Ratio in data set [15] worked out at 0.3; in data set [5], 3.5. Besides, the negative logarithm of the Ki (pKi) in data set [3] is 3.02. In addition, the Kinact in [4] was 0.198 min⁻¹. Also, in the data set on RAW264.7 [6], the Activity entry is “Non-Toxic”.
